Assay results as given in patent EP1981504B1, “THIADIAZOLE DERIVATIVES FOR THE TREATMENT OF NEURO DEGENERATIVE DISEASES” (NV reMYND, priority 2006, dated 2007).
In brackets after ≈: the same amount, converted by molar mass.

Test system: M17-SYNwt cells
Assay: α-synuclein cytotoxicity assay (LDH leakage from paraquat-treated α-synuclein over-expressing neuroblastoma cells)
Assay type: cell-based, human
Conditions: for EC50 (µg/mL) / %I / EC50: paraquat 32 mM, 40 hours, LDH release; for EC50 (µg/mL) / EC50: 10 point curves in duplicate; for %I: percent inhibition of synuclein cytotoxicity at most effective concentration of test compound, relative to untreated paraquat cells; for LDH activity in the medium: Figure 2, dose response in paraquat-treated M17-SYNwt cells; for EC50: Homo sapiens, Neuroblastoma cell
Method: Subsequently, LDH activity was determined using Promega Cytotox 96 NonRadioactive cytotoxicity assay, (Cat. G1780) according the supplier's instructions.
This corresponds to the following equation: (LDHreleaseoftreatedparaquatcellsatnon-effectiveconcentrationoftestcmpd)−(LDHreleaseoftreatedparaquatcellsatmosteffectiveconcentrationoftestcmpd)/(LDHreleaseofuntreatedparaquatcells)−(LDHreleasecontrolcells)*100% [formula]
1,2,4-thiadazole compounds made according to the methods described herein were screened for activity using the α-synuclein cytotoxicity assay as described above. Dose responses were carried out on all compounds found to be active (10 point curves in duplicate).

Compound | EC50 (µg/mL) | %I | LDH activity in the medium | EC50
1-(3-methylbenzoyl)-4-[3-(4-methylbenzyl)-1,2,4-thiadiazol-5-yl]-2-methylpiperazine [Compound 144] | 0,56 µg/mL | 64% |  | 
1-(4-methoxybenzoyl)-4-[3-(4-methylbenzyl)-1,2,4-thiadiazol-5-yl]-2-methylpiperazine [Compound 130] | 0,25 µg/mL | 118% |  | 
1-(phenylprop-2-ensulfonyl)-4-[3-(4-fluorobenzyl)-1,2,4-thiadiazol-5-yl]piperazine [Compound 78] | 0,13 µg/mL | 75% |  | 
1-(phenylprop-2-ensulfonyl)-4-[3-(4-methylbenzyl)-1,2,4-thiadiazol-5-yl]-2-methylpiperazine [Compound 79] | 0,17 µg/mL | 53% |  | 
1-(phenylprop-2-ensulfonyl)-4-[3-(4-methylbenzyl)-1,2,4-thiadiazol-5-yl]piperazine [Compound 80] | 0,056880 µg/mL | 70% |  | 
1-[3-trifluorophenylsulfonyl]-4-[3-(4-fluorobenzyl)-1,2,4-thiadiazol-5-yl]-2-methylpiperazine [Compound 46] | 1,34 µg/mL | 64% |  | 
1-[4-bromophenylsulfonyl]-4-[3-(4-methylbenzyl)-1,2,4-thiadiazol-5-yl]-3-methylpiperazine [Compound 40] | 0,099855 µg/mL | 77% |  | 
2-phenyl-N-{2-[4-[3-(4-fluorobenzyl)-1,2,4-thiadiazol-5-yl]piperazin-1-yl]ethyl}butanamide [Compound 111] | 1,79 µg/mL | 79% | able, in a dose-dependent manner, to reduce LDH activity in the medium | 
3-phenyl-N-{2-[4-[3-(4-fluorobenzyl)-1,2,4-thiadiazol-5-yl]piperazin-1-yl]ethyl}propanamide [Compound 112] | 0,55 µg/mL | 91% |  | 
O=C(Cc1ccccc1)N1CCN(c2nc(Cc3ccc(F)cc3)ns2)CC1 [Compound 1, 4-phenylacetyl-1-[3-(4-fluorobenzyl)-1,2,4-thiadiazol-5-yl]piperazine] |  | 75% |  | 0.15 µg/mL (≈ 0.378 µM)
O=C(Cc1ccc(F)cc1)N1CCN(c2nc(Cc3ccc(F)cc3)ns2)CC1 [Compound 2, 4-(4-fluorophenylacetyl),1-[3-(4-fluorobenzyl)-1,2,4-thiadiazol-5-yl]piperazine] |  | 54% |  | 0.25 µg/mL (≈ 0.603 µM)
Cc1ccc(Cc2nsc(N3CCN(C(=O)Cc4ccc(F)cc4)C(C)C3)n2)cc1 (stereo not drawn) [Compound 3, 1-(4-fluorophenylacetyl)-4-[3-(4-methylbenzyl)-1,2,4-thiadiazol-5-yl]-2-methylpiperazine] |  | 76% |  | 2.2 µg/mL (≈ 5.18 µM)
COc1ccc(CC(=O)N2CCN(c3nc(Cc4ccc(F)cc4)ns3)CC2C)cc1 (stereo not drawn) [Compound 4, 1-(4-methoxyphenylacetyl)-4-[3-(4-fluorobenzyl)-1,2,4-thiadiazol-5-yl]-2-methylpiperazine] |  | 56% |  | 0.82 µg/mL (≈ 1.86 µM)
CC1CN(c2nc(Cc3ccc(F)cc3)ns2)CCN1C(=O)Cc1ccccc1 (stereo not drawn) [Compound 5, 1-phenylacetyl-4-[3-(4-fluorobenzyl)-1,2,4-thiadiazol-5-yl]-2-methylpiperazine] |  | 83% |  | 
CC1CN(c2nc(Cc3ccc(F)cc3)ns2)CCN1C(=O)Cc1ccc(F)cc1 (stereo not drawn) [Compound 6, 1-(4-fluorophenylacetyl)-4-[3-(4-fluorobenzyl)-1,2,4-thiadiazol-5-yl]-2-methylpiperazine] |  | 75% |  | 
CC1CN(c2nc(Cc3ccc(F)cc3)ns2)CCN1C(=O)C(Cl)c1ccccc1 (stereo not drawn) [Compound 7, 1-[chloro(phenyl)acetyl]-4-[3-(4-fluorobenzyl)-1,2,4-thiadiazol-5-yl]-2-methylpiperazine] |  | 69% |  | 
CCC(C(=O)N1CCN(c2nc(Cc3ccc(F)cc3)ns2)CC1C)c1ccccc1 (stereo not drawn) [Compound 8, 1-(2-phenylbutanoyl)-4-[3-(4-fluorobenzyl)-1,2,4-thiadiazol-5-yl]-2-methylpiperazine] |  | 71% |  | 1.49 µg/mL (≈ 3.4 µM)

Compound | EC50 (µg/mL) | %I | LDH activity in the medium | EC50
O=C(Nc1cccc(F)c1)N1CCN(c2nc(Cc3ccc(F)cc3)ns2)CC1 [Compound 9, N-(3-fluorophenyl)-4-[3-(4-fluorobenzyl)-1,2,4-thiadiazol-5-yl]piperazine-1-carboxamide] |  | 53% |  | 0.52 µg/mL (≈ 1.25 µM)
Cc1ccccc1NC(=O)N1CCN(c2nc(Cc3ccc(F)cc3)ns2)CC1C (stereo not drawn) [Compound 10, N-(2-methylphenyl)-4-[3-(4-fluorobenzyl)-1,2,4-thiadiazol-5-yl]-2-methylpiperazine-1-carboxamide] |  | 72% |  | 0.6 µg/mL (≈ 1.41 µM)
CCc1ccc(NC(=O)N2CCN(c3nc(Cc4ccc(F)cc4)ns3)CC2C)cc1 (stereo not drawn) [Compound 11, N-(4-ethylphenyl)-4-[3-(4-fluorobenzyl)-1,2,4-thiadiazol-5-yl]-2-methylpiperazine-1-carboxamide] |  | 73% |  | 0.69 µg/mL (≈ 1.57 µM)
CCc1ccccc1NC(=O)N1CCN(c2nc(Cc3ccc(F)cc3)ns2)CC1C (stereo not drawn) [Compound 12, N-(2-ethylphenyl)-4-[3-(4-fluorobenzyl)-1,2,4-thiadiazol-5-yl]-2-methylpiperazine-1-carboxamide] |  | 92% |  | 0.89 µg/mL (≈ 2.02 µM)
O=C(Nc1ccccc1)N1CCN(c2nc(Cc3ccc(F)cc3)ns2)CC1 [Compound 13, N-phenyl-4-[3-(4-fluorobenzyl)-1,2,4-thiadiazol-5-yl]piperazine-1-carboxamide] |  | 71% |  | 1.23 µg/mL (≈ 3.09 µM)
CCOc1ccc(NC(=O)N2CCN(c3nc(Cc4ccc(F)cc4)ns3)CC2C)cc1 (stereo not drawn) [Compound 14, N-(4-ethoxyphenyl)-4-[3-(4-fluorobenzyl)-1,2,4-thiadiazol-5-yl]-2-methylpiperazine-1-carboxamide] |  | 70% |  | 1.73 µg/mL (≈ 3.8 µM)
Cc1ccccc1NC(=O)N1CCN(c2nc(Cc3ccc(F)cc3)ns2)CC1 [Compound 15, N-(2-methylphenyl)-4-[3-(4-fluorobenzyl)-1,2,4-thiadiazol-5-yl]piperazine-1-carboxamide] |  | 65% |  | 5.01 µg/mL (≈ 12.2 µM)
O=C(Nc1ccccc1F)N1CCN(c2nc(Cc3ccc(F)cc3)ns2)CC1 [Compound 16, N-(2-fluorophenyl)-4-[3-(4-fluorobenzyl)-1,2,4-thiadiazol-5-yl]piperazine-1-carboxamide] |  | 72% |  | 5.68 µg/mL (≈ 13.7 µM)
O=C(Nc1ccccc1C(F)(F)F)N1CCN(c2nc(Cc3ccc(F)cc3)ns2)CC1 [Compound 17, N-(2-trifluoromethylphenyl)-4-[3-(4-fluorobenzyl)-1,2,4-thiadiazol-5-yl]piperazine-1-carboxamide] |  | 46% |  | 
CC1CN(c2nc(Cc3ccc(F)cc3)ns2)CCN1C(=O)Nc1ccccc1C(F)(F)F (stereo not drawn) [Compound 18, N-(2-trifluoromethylphenyl)-4-[3-(4-fluorobenzyl)-1,2,4-thiadiazol-5-yl]-2-methylpiperazine-1-carboxamide] |  | 41% |  | 
Cc1cccc(C)c1NC(=O)N1CCN(c2nc(Cc3ccc(F)cc3)ns2)CC1C (stereo not drawn) [Compound 19, N-(2,6-dimethylphenyl)-4-[3-(4-fluorobenzyl)-1,2,4-thiadiazol-5-yl]-2-methylpiperazine-1-carboxamide] |  | 95% | able, in a dose-dependent manner, to reduce LDH activity in the medium | 0.2 µg/mL (≈ 0.455 µM)
Cc1ccc(NC(=O)N2CCN(c3nc(Cc4ccc(F)cc4)ns3)CC2C)c(C)c1 (stereo not drawn) [Compound 20, N-(2,4-dimethylphenyl)-4-[3-(4-fluorobenzyl)-1,2,4-thiadiazol-5-yl]-2-methylpiperazine-1-carboxamide] |  | 106% |  | 0.76 µg/mL (≈ 1.73 µM)
CC1CN(c2nc(Cc3ccc(F)cc3)ns2)CCN1C(=O)Nc1ccc(F)cc1F (stereo not drawn) [Compound 23, N-(2,4-difluorophenyl)-4-[3-(4-fluorobenzyl)-1,2,4-thiadiazol-5-yl]-2-methylpiperazine-1-carboxamide] |  | 66% |  | 0.94 µg/mL (≈ 2.1 µM)
Cc1cccc(C)c1NC(=O)N1CCN(c2nc(Cc3ccc(F)cc3)ns2)CC1 [Compound 24, N-(2,6-dimethylphenyl)-4-[3-(4-fluorobenzyl)-1,2,4-thiadiazol-5-yl]piperazine-1-carboxamide] |  | 124% |  | 1.2 µg/mL (≈ 2.82 µM)
CC1CN(c2nc(Cc3ccc(F)cc3)ns2)CCN1C(=O)Nc1cccc2ccccc12 (stereo not drawn) [Compound 25, N-1-naphtyl-4-[3-(4-fluorobenzyl)-1,2,4-thiadiazol-5-yl]-2-methylpiperazine-1-carboxamide] |  | 97% |  | 1.69 µg/mL (≈ 3.66 µM)
CC1CN(c2nc(Cc3ccc(F)cc3)ns2)CCN1C(=O)Nc1ccc(F)c(F)c1 (stereo not drawn) [Compound 26, N-(3,4-difluorophenyl)-4-[3-(4-fluorobenzyl)-1,2,4-thiadiazol-5-yl]-2-methylpiperazine-1-carboxamide] |  | 70% |  | 
COc1ccc(NC(=O)N2CCN(c3nc(Cc4ccc(F)cc4)ns3)CC2)c(OC)c1 [Compound 27, N-(2,4-dimethoxyphenyl)-4-[3-(4-fluorobenzyl)-1,2,4-thiadiazol-5-yl]piperazine-1-carboxamide] |  | 67% |  | 
